{"source": "patent US10046000B2", "about": "“Use of 2-methylene-19-nor-(20S)-1α,25-Dihydroxyvitamin D3 to treat and prevent secondary hyperparathyroidism in a subject having renal failure” (Wisconsin Alumni Research Foundation, priority 2012, dated 2018)", "key": {"bovine parathyroid cells": {"system": "bovine parathyroid cells", "details": "cited from earlier work; for suppression of PTH secretion compared with 1,25-(OH)2D3: cultured bovine parathyroid cells"}, "PTH mRNA": {"system": "PTH mRNA", "details": "in vivo; cited from earlier work"}, "uremic dogs": {"system": "uremic dogs", "details": "cited from earlier work"}, "uremic rats": {"system": "uremic rats", "details": "cited from earlier work"}, "[1]": {"system": "bone calcium mobilization", "details": "in vivo; cited from earlier work"}, "uremic rat model [2]": {"system": "uremic rat model", "type": "in vivo", "details": "for effect on serum phosphorus levels: nephrectomized rats", "text": "(§1) Nephrectomy Rat Model. Disease Induction. Weanling, male Sprague-Dawley rats were obtained from Harlan (Madison, Wis.). Following a 10-13 day acclimation period, the animals had two-thirds of one kidney removed. After a week, the other entire kidney was removed. The animals were then switched from a chow diet to a purified rodent diet (Suda et al., Purified Rodent Diet-Diet 11) containing 0.6% Ca and 0.9% phosphorus and fat soluble vitamins A, D, E and K. Water and diet were provided ad libitum.\n(§2) Animal Husbandry. Animals were housed in suspended, plastic shoe-box style cages with corn cob bedding (prior to surgery) or in stainless steel, wire-bottom cages (approximately one week after surgery). The animal rooms were maintained at a temperature of 68 to 72° F. and a relative humidity of 25 to 75%. The holding rooms were set to provide 12 hours of light per day.\n(§3) Treatment Groups. Approximately four weeks after the second surgery, animals were assigned to treatment groups (14-15 animals/group) so that each group had the same average PTH level.\n(§4) Dose Preparation (Vehicle Formulation). The negative control material was prepared by volumetrically measuring ethanol (5%) and Neobee oil, mixing and then placing in storage at 2 to 8° C.\nDose Preparation (2MD Formulation). 2MD formulations (DP001, Sigma Aldrich Fine Chemicals, Madison, Wis.) were prepared by first determining the concentration of an ethanol stock solution using UV spectrophotometry (extinction coefficient=42,000; λmax=252 nm). The solutions were then volumetrically added to Neobee oil so that there was no more than 5% ethanol in the final solution. If necessary, additional ethanol was added to bring the final ethanol amount to 5%. The solution was mixed and stored at 2 to 8° C.\nDose Administration Method. Both vehicle and 2MD were administered orally to the back of the tongue at 0.5 ml/kg body weight once daily for 8 weeks, or intraperitoneally three times per week for 4 weeks.\nSerum Parathyroid Hormone (PTH) Levels. By “serum PTH levels” we mean the amount of PTH released by the parathyroid gland. PTH is the most important regulator of the body's calcium and phosphorus levels, and is controlled by the level of calcium in the blood. Low blood calcium levels cause increased PTH to be released, while high blood calcium levels inhibit PTH release. Normal values are 10-55 picograms per milliliter ([…]). Four weeks after surgery and 4 and 8 weeks after treatment initiation, blood was collected from the tail artery and the concentration of bioactive serum PTH was measured using the rat BioActive Intact PTH ELISA Kit from Immutopics, Inc. (San Clemente, Calif.).\nSerum Calcium Analysis. Four weeks following surgery and 4 and 8 weeks after treatment started, blood was collected from the tail artery of each experimental animal. The blood was allowed to coagulate at room temperature and then centrifuged at 3000×g for 15 minutes. The serum was transferred to a polypropylene tube and stored frozen at −20° C. The level of calcium was determined by diluting the serum into 0.1% lanthum chloride and measuring the absorbance on an atomic absorption spectrophotometer (Perkin Elmer Model 3110, Shelton, Conn.).\nPhosphorus Assay. Four weeks after surgery and 8 weeks after treatment started, blood was collected from the tail artery of each experimental animal. The blood was allowed to coagulate at room temperature and then centrifuged at 3000×g for 15 minutes. The serum was transferred to a polypropylene tube and stored frozen at −20° C. The level of phosphorus was determined using a clinical analyzer (Pentra 400, Horiba ABX Diagnostics—France; UV method using phosphomolybdate).\nCreatinine Assay. Measuring serum creatinine levels is a useful and inexpensive method of evaluating renal dysfunction. Creatinine is a non-protein waste product of phosphocreatinine metabolism by skeletal muscle tissue. Creatinine production is continuous and is proportional to muscle mass. […]"}, "uremic rat model [3]": {"system": "uremic rat model", "assay": "Uremic rat model, intraperitoneal (ip) administration of 2MD", "type": "in vivo", "text": "as §1, §2, §3, §4\nDose Preparation (2MD Formulation). 2MD formulations (DP001, Sigma Aldrich Fine Chemicals, Madison, Wis.) were prepared by first determining the concentration of an ethanol stock solution using UV spectrophotometry (extinction coefficient=42,000; λmax=252 nm). […]\nSerum Parathyroid Hormone (PTH) Levels. […] Four weeks after surgery and 4 and 8 weeks after treatment initiation, blood was collected from the tail artery and the concentration of bioactive serum PTH was measured using the rat BioActive Intact PTH ELISA Kit from Immutopics, Inc. (San Clemente, Calif.).\nSerum Calcium Analysis. […] The level of calcium was determined by diluting the serum into 0.1% lanthum chloride and measuring the absorbance on an atomic absorption spectrophotometer (Perkin Elmer Model 3110, Shelton, Conn.). […]"}, "postmenopausal women": {"system": "postmenopausal women", "assay": "Phase 1B trial, oral administration of 2MD to postmenopausal women", "type": "in vivo, human", "details": "for reduction of serum PTH levels: oral"}, "[4]": {"system": "intestinal calcium transport", "details": "in vivo; cited from earlier work"}, "serum calcium": {"system": "serum calcium", "details": "rat, in vivo; cited from earlier work"}, "[5]": {"system": "MRL/MpJ-FAS^lpr (MRL/pr) mouse model", "details": "300 ng per day through the diet; cited from earlier work"}, "[6]": {"system": "rats with renal insufficiency", "details": "four times during eight days, cited from earlier work"}}, "note": "Like-named read-outs stand apart in the source and are kept apart here.", "data": [{"molecule": "C=C1/C(=C\\C=C2/CCC[C@]3(C)C([C@H](C)CC#CC(C)(C)O)=CC[C@@H]23)C[C@@H](O)C[C@@H]1O", "note": "[1,25-(OH)2-16-ene-23-yne-D3]", "values": [{"measurement": "suppression of PTH secretion compared with 1,25-(OH)2D3", "setting": "bovine parathyroid cells", "value": "nearly as effective as 1,25-(OH)2D3"}]}, {"molecule": "C=C1C(=CC=C2CCCC3(C)C2CCC3C(C)C=CCCCCC(C)(C)O)CC(O)CC1O", "note": "(stereo not drawn) [1,25-(OH)2-24-trihomo-22-ene-D3]", "values": [{"measurement": "suppression of PTH secretion compared with 1,25-(OH)2D3", "setting": "bovine parathyroid cells", "value": "nearly as effective as 1,25-(OH)2D3"}]}, {"molecule": "C=C1/C(=C\\C=C2/CCC[C@]3(C)[C@@H]([C@H](C)OCCC(C)(C)O)CC[C@@H]23)C[C@@H](O)C[C@@H]1O", "note": "[22-oxacalcitriol]", "values": [{"measurement": "suppression of PTH mRNA", "setting": "PTH mRNA", "value": "could suppress PTH mRNA"}, {"measurement": "serum PTH", "setting": "uremic dogs", "value": "suppress serum PTH"}, {"measurement": "suppression of PTH secretion compared with 1,25-(OH)2D3", "setting": "bovine parathyroid cells", "value": "nearly as effective as 1,25-(OH)2D3"}, {"measurement": "serum PTH", "setting": "uremic rats", "value": "suppress serum PTH"}]}, {"molecule": "C=C1[C@H](O)CC(=C/C=C2\\CCC[C@@]3(C)C2CCC3[C@@H](C)CCCC(C)(C)O)C[C@H]1O", "note": "(stereo partly drawn) [2MD, 2-methylene-19-nor-(20S)-1α,25-dihydroxyvitamin D3]", "values": [{"measurement": "bone calcium mobilization activity", "setting": "[1]", "value": "10-100 times that of 1α,25-(OH)2D3"}, {"measurement": "doses at which clinically significant serum calcium increases are observed", "setting": "uremic rat model [2]; male, Sprague-Dawley, rat, in vivo, po, 8 weeks", "value": 5, "unit": "ng/kg bw"}, {"measurement": "effect on serum PTH levels", "setting": "uremic rat model [2]; oral, daily doses of 1-5 ng/kg bw, FIG. 5", "value": "prevented an increase or effected a reduction in serum PTH levels"}, {"measurement": "serum creatinine levels compared to Vehicle control animals", "setting": "uremic rat model [2]; oral, daily doses of 1-5 ng/kg bw, FIG. 11", "value": "resulted in lower serum creatinine levels"}, {"measurement": "effect on serum phosphorus levels", "setting": "uremic rat model [2]; oral, daily doses of 1-5 ng/kg bw, FIG. 9", "value": "reduced serum phosphorus levels"}, {"measurement": "dose at which serum calcium levels were raised", "setting": "uremic rat model [3]; ip three times per week, FIG. 3", "value": 10, "unit": "ng/kg bw"}, {"measurement": "effect on serum PTH", "setting": "uremic rat model [3]; ip, 5 ng/kg bw three times per week, FIG. 2", "value": "prevented increases in serum PTH"}, {"measurement": "effect on circulating PTH levels", "setting": "uremic rat model [3]; ip, 10 ng/kg bw three times per week, FIG. 2", "value": "suppresses circulating PTH levels"}, {"measurement": "serum calcium levels", "setting": "postmenopausal women; 400 ng per day", "value": "maintaining serum calcium levels within the physiologically normal range"}, {"measurement": "reduction in serum PTH levels", "setting": "postmenopausal women; 400 ng per day, FIG. 13", "value": "> 60", "unit": "%"}, {"measurement": "reduction of serum PTH levels", "setting": "postmenopausal women; 110 ng once daily for 28 days", "value": 21, "unit": "%"}, {"measurement": "reduction of serum PTH levels", "setting": "postmenopausal women; 440 ng once daily for 28 days", "value": 67, "unit": "%"}, {"measurement": "intestinal calcium transport activity", "setting": "[4]", "value": "modest increase in intestinal calcium transport activity"}]}, {"molecule": "C=C1/C(=C\\C=C2/CCC[C@]3(C)[C@@H]([C@H](C)CCCC(C)(C)O)CC[C@@H]23)C[C@@H](O)C[C@@H]1O", "note": "[1,25-(OH)2D3, 1α,25-dihydroxyvitamin D3]", "values": [{"measurement": "dose that increased serum calcium to the same magnitude", "setting": "serum calcium", "value": 10, "unit": "ng/rat/10 days"}, {"measurement": "hypercalcemia", "setting": "[5]", "value": "severe hypercalcemia always accompanied this treatment"}, {"measurement": "proteinuria", "setting": "[5]", "value": "completely prevents proteinuria"}, {"measurement": "effect on serum calcium and phosphorus", "setting": "[6]; 8 ng dose", "value": "induced hypercalcemia and hyperphosphatemia"}, {"measurement": "effect on pre-pro-PTH mRNA and PTH secretion", "setting": "[6]; 2, 4 and 8 ng", "value": "suppressed pre-pro-PTH mRNA and PTH secretion"}, {"measurement": "dose at which the decrease of pre-pro-PTH mRNA and PTH secretion was statistically significant", "setting": "[6]", "value": 8, "unit": "ng"}]}, {"molecule": "C=C1C(=CC=C2CCCC3(C)C2CCC3C(C)CCCCCC(C)(C)O)CC(O)CC1O", "note": "(stereo not drawn) [1,25-(OH)2-24-dihomo-D3]", "values": [{"measurement": "suppression of PTH secretion compared with 1,25-(OH)2D3", "setting": "bovine parathyroid cells", "value": "nearly as effective as 1,25-(OH)2D3"}]}, {"molecule": "C[C@H](/C=C/[C@H](C)C(C)(C)O)[C@H]1CC[C@H]2/C(=C/C=C3C[C@@H](O)C[C@H](O)C3)CCC[C@]12C", "note": "[Zemplar®, 19-nor-1α,25-dihydroxy-ergocalciferol]", "values": [{"measurement": "dose that increased serum calcium to the same magnitude", "setting": "serum calcium", "value": 100, "unit": "ng/rat/10 days"}, {"measurement": "serum creatinine levels compared to Vehicle control animals", "setting": "uremic rat model [2]; oral Zemplar", "value": "lowered serum creatinine levels compared to Vehicle control animals, however, only at dose levels that significantly increased serum calcium"}, {"measurement": "effect on serum phosphorus levels", "setting": "uremic rat model [2]; oral Zemplar", "value": "did not reduce serum phosphorus levels"}, {"measurement": "duration of the effect on serum PTH", "setting": "uremic rat model [2]; oral daily treatment for up to 8 weeks", "value": "the therapeutic effect was lost as the disease progressed"}, {"measurement": "effect on serum PTH levels", "setting": "uremic rat model [2]; oral, daily doses of 30-300 ng/kg bw, FIG. 6", "value": "prevented an increase in serum PTH levels"}, {"measurement": "suppression on PTH release", "setting": "bovine parathyroid cells; 10^−7M", "value": 52, "unit": "%"}, {"measurement": "changes in serum ionized calcium or serum phosphorus", "setting": "[6]; 8, 25 and 75 ng", "value": "none of the doses of 19-nor-1,25-(OH)2D2 produced statistically significant changes"}]}]}
